Laboratory results from patent publication US4234511A, “Dialkylamino-N,N-bis(phosphonoalkylene)alkylamines and use in aqueous systems as precipitation and corrosion inhibitors” (Buckman Laboratories, Inc., priority 1979, dated 1980).
Where a name gives a salt, the structure may show the parent alone.

Assays:
[1] = Corrosion inhibition, circulating Memphis tap water with mild steel coupons; conditions: initial pH 7.5, 50° C., three days
Procedure: The test apparatus included a sump, a flow circuit, a circulating pump and a heater. […] The test fluid was Memphis tap water with the pH adjusted to 7.5 and the temperature was maintained at 50° C.±2° C.
The test fluid containing various concentrations of the compositions described herein was circulated continuously through the system containing the test coupons for a period of three days. At the end of this period, the coupons were removed, cleaned and weighed. The corrosion rates were calculated in milligrams per square decimeter per day (MDD).

[2] = Calcium Carbonate Antiprecipitation Tests; conditions: pH 9, 25° C., approx. 18 hours
Procedure: To evaluate the effect of the compounds of the present invention on the precipitation of calcium carbonate, measured volume of stock solution (prepared with demineralized water) of the phosphonic acids or their reaction product with epichlorohydrin were added to 100-ml portions of a calcium hydroxide solution (0.40 g Ca(OH)2 per liter). Then 100 ml of a sodium bicarbonate solution (0.50 g NaHCO3 per liter) was added to each portion of calcium hydroxide solution. The pH of each portion was adjusted to 9.00 (±0.05). The test solutions were then agitated on a rotary shaker for approximately 18 hours at a temperature of 25° C. At the end of this time insoluble material was removed by filtration with Whatman No. 4 filter paper and the calcium ion concentration in the filtrate was determined by titration with a standard ethylenediamine tetraacetic acid solution. The percent inhibition (Table 1) was calculated by comparing the test solution values with two controls included in every test series.

SMILES | Corrosion rate, Average ([1]; 50 parts per million) | Corrosion rate, Copper Couple ([1]; 50 parts per million) | Corrosion rate, Sump 1 ([1]; 50 parts per million) | Corrosion rate, Sump 2 ([1]; 50 parts per million) | Corrosion Inhibition, Percent ([1]; 100 parts per million) [%] | Corrosion rate, Average ([1]; 100 parts per million) | Corrosion rate, Copper Couple ([1]; 100 parts per million) | Corrosion rate, Sump 1 ([1]; 100 parts per million) | Corrosion rate, Sump 2 ([1]; 100 parts per million) | Inhibition of Calcium Carbonate Precipitation, percent inhibition ([2]; 1.0 parts per million) [%] | Inhibition of Calcium Carbonate Precipitation, percent inhibition ([2]; 2.0 parts per million) [%] | Inhibition of Calcium Carbonate Precipitation, percent inhibition ([2]; 3.0 parts per million) [%] | Inhibition of Calcium Carbonate Precipitation, percent inhibition ([2]; 4.0 parts per million) [%] | Inhibition of Calcium Carbonate Precipitation, percent inhibition ([2]; 5.0 parts per million) [%] | Inhibition of Calcium Carbonate Precipitation, percent inhibition ([2]; 6.0 parts per million) [%] | Inhibition of Calcium Carbonate Precipitation, percent inhibition ([2]; 7.0 parts per million) [%] | Inhibition of Calcium Carbonate Precipitation, percent inhibition ([2]; 8.0 parts per million) [%] | Inhibition of Calcium Carbonate Precipitation, percent inhibition ([2]; 9.0 parts per million) [%] | Inhibition of Calcium Carbonate Precipitation, percent inhibition ([2]; 10.0 parts per million) [%] | also measured
CN(C)CCCN(CP(=O)(O)O)CP(=O)(O)O [A, 3-(N,N-Dimethylamino)-N',N'-bis(phosphonomethyl)propylamine Hydrochloride] | 1.51 Miligrams per decimeter per day | 3.01 Miligrams per decimeter per day | 1.33 Miligrams per decimeter per day | 0.18 Miligrams per decimeter per day | 99.5 | 1.24 Miligrams per decimeter per day | 1.06 Miligrams per decimeter per day | 0.89 Miligrams per decimeter per day | 1.77 Miligrams per decimeter per day | 0 | 0 | 4.2 | 41.6 | 50.9 | 54.5 | 64.1 | 60.6 | 69.4 | 67.5 | Corrosion Inhibition, Percent ([1]; 50 parts per million): 99.4%; Corrosion Inhibition, Percent ([1]; 200 parts per million): 99.2%; Corrosion rate, Average ([1]; 200 parts per million): 2.13 Miligrams per decimeter per day; Corrosion rate, Copper Couple ([1]; 200 parts per million): 3.90 Miligrams per decimeter per day; Corrosion rate, Sump 1 ([1]; 200 parts per million): 1.15 Miligrams per decimeter per day; Corrosion rate, Sump 2 ([1]; 200 parts per million): 1.33 Miligrams per decimeter per day
CN(C)CCN(CP(=O)(O)O)CP(=O)(O)O [F, 2-Dimethylamino-N',N'-bis(phosphonomethyl)ethylamine Hydrochloride] | 35.46 Miligrams per decimeter per day | 40.08 Miligrams per decimeter per day | 12.94 Miligrams per decimeter per day | 53.37 Miligrams per decimeter per day | 99.4 | 1.57 Miligrams per decimeter per day | 1.95 Miligrams per decimeter per day | 1.24 Miligrams per decimeter per day | 1.51 Miligrams per decimeter per day | 6.2 | 17.8 | 32.3 | 35.3 | 49.5 | 55.6 | 65.2 | 69.6 | 77.7 | 78.6 | Corrosion Inhibition, Percent ([1]; 150 parts per million): 99.6%; Corrosion rate, Average ([1]; 150 parts per million): 1.06 Miligrams per decimeter per day; Corrosion rate, Copper Couple ([1]; 150 parts per million): 0.98 Miligrams per decimeter per day; Corrosion rate, Sump 1 ([1]; 150 parts per million): 1.15 Miligrams per decimeter per day; Corrosion rate, Sump 2 ([1]; 150 parts per million): 1.06 Miligrams per decimeter per day
